Test results as given in ChEMBL document CHEMBL4145505, “Rational design, chemical synthesis and biological evaluation of novel biguanides exploring species-specificity responsiveness of TAAR1 agonists” (Eur J Med Chem, 2018).

How the values were obtained:
[1] = biological target: Trace amine-associated receptor 1 (Mus musculus, UniProt Q923Y8); experiment: Agonist activity at mouse TAAR1 expressed in HEK293 cells assessed as cAMP accumulation after 20 mins by BRET assay; assay type: functional, cell-based
Sequence of Trace amine-associated receptor 1 (Mus musculus, UniProt Q923Y8) (Q923Y8 whole entry): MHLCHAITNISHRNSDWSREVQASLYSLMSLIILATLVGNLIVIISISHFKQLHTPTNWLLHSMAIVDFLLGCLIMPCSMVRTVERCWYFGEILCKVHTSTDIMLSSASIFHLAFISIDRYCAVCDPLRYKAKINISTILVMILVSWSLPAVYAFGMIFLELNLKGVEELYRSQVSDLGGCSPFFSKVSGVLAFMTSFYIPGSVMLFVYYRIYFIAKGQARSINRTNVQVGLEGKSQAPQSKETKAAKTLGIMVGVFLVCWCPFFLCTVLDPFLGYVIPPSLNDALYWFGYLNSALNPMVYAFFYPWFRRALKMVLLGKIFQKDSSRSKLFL

[2] = biological target: T1, Trace amine-associated receptor 5 (Mus musculus, UniProt Q5QD14); experiment: Agonist activity at mouse TAAR5 expressed in HEK293 cells assessed as cAMP accumulation after 20 mins by BRET assay; assay type: functional, cell-based
T1 sequence (Q5QD14 whole entry): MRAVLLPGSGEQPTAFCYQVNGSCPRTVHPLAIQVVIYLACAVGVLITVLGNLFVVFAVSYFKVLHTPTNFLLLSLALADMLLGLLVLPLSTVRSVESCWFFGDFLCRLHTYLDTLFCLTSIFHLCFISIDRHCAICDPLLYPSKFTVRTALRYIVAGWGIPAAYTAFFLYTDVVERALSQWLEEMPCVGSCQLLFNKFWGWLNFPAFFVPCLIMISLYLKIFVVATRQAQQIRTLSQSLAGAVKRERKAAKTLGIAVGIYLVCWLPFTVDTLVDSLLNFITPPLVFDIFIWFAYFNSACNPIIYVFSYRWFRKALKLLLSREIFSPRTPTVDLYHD

[3] = biological target: Trace amine-associated receptor 1 (Mus musculus) (UniProt Q923Y8); experiment: Agonist activity at mouse TAAR1 expressed in HEK293 cells assessed as cAMP accumulation at 10 uM after 20 mins by BRET assay relative to beta-PEA; assay type: functional, cell-based
Sequence of Trace amine-associated receptor 1 (Mus musculus) (Q923Y8 whole entry, the tested form may be a part): as the sequence (Q923Y8 whole entry) above

[4] = Selectivity ratio of EC50 for mouse TAAR1 to EC50 for human TAAR1
[5] = biological target: T2, Trace amine-associated receptor 1 (Homo sapiens) (UniProt Q96RJ0); experiment: Agonist activity at human TAAR1 expressed in HEK293 cells assessed as cAMP accumulation at 10 uM after 20 mins by BRET assay relative to beta-PEA; assay type: functional, cell-based
T2 sequence (whole entry): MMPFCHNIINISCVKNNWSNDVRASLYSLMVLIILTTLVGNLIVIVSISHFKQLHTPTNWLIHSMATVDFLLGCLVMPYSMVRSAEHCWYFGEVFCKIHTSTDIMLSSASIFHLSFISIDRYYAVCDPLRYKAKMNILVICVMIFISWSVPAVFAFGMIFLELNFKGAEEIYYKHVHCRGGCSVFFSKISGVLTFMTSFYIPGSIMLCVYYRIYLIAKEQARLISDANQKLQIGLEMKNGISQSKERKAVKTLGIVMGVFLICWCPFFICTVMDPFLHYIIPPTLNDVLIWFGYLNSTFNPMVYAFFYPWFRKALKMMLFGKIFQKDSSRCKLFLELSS

[6] = biological target: T3, Trace amine-associated receptor 1 (Homo sapiens, UniProt Q96RJ0); experiment: Agonist activity at human TAAR1 expressed in HEK293 cells assessed as cAMP accumulation after 20 mins by BRET assay; assay type: functional, cell-based
T3 sequence (Q96RJ0 whole entry): T2 sequence (whole entry)

EC50 [1] | Compound | EC50 [2] | other results
2.66 µM | N=C(N)/N=C(\N)N1CCN(c2ccccc2Cl)CC1 | > 10 µM | Activity [3]: 57%
– | N=C(N)/N=C(\N)N1CCN(c2ccccn2)CC1 | > 10 µM | –
2.38 µM | N=C(N)NC(=N)N1CCN(c2ccccc2)CC1 | > 10 µM | Ratio EC50 [4]: 1.7; Activity [5]: 81%; Activity [3]: 46%; EC50 [6]: 1.38 µM
– | COc1cccc(N2CCN(/C(N)=N/C(=N)N)CC2)c1 | > 10 µM | –
– | N=C(N)/N=C(\N)N1CCN(c2ccc(Cl)cc2)CC1 | > 10 µM | –
– | COc1ccccc1N1CCN(/C(N)=N/C(=N)N)CC1 | > 10 µM | –
– | COc1ccc(N2CCN(/C(N)=N/C(=N)N)CC2)cc1 | > 10 µM | Activity [5]: 110%; EC50 [6]: 11.4 µM
– | N=C(N)/N=C(\N)N1CCN(c2cccc(C(F)(F)F)c2)CC1 | > 10 µM | –
9 µM | N=C(N)/N=C(\N)N1CCN(c2ncccn2)CC1 | > 10 µM | Activity [3]: 40%
– | N=C(N)/N=C(\N)N1CCN(c2cccc(Cl)c2)CC1 | > 10 µM | –

Compound | EC50 [1] | EC50 [2] | other results
NCCc1ccccc1 [PHENETHYLAMINE] | 0.12 µM | – | –
